# Source: patent US11365415B2, “Use of miR-223-3p as a cancer therapeutic and method for treating cancer using the same” (University of Florida Research Foundation, Inc., priority 2016, dated 2022)
# Columns and labels:
# Format in all cases: cell-based
# [1] = tested on: endogenous miR-223-3p in HL60 cells; assay: qRT-PCR of endogenous miR-223-3p in HL60 cells after Ara-C; details: 50 μM Ara-C, different time points
# Method: Quantitative real time PCR (qRT-PCR) measuring endogenous miR-223 If miR-223-3p is a physiologic regulator of PARP1 expression, then its expression should be repressed after DNA damage, when higher levels of PARP1 are required to repair this damage. Mir223-3p is most highly expressed in hematopoietic cells, such as the HL60 cell line. HL60 cells were treated with 50 μM cytarabine (Ara-C) for lhr, 4 hr, 8 hr, 12 hr and 24 hr. Western blot analysis was performed to examine PARP1 protein levels in these samples. For measuring levels of miR-223-3p, cells were collected at the above time points, RNA isolated using the Qiagen RNeasy kit. cDNA conversion was then performed using first-strand cDNA synthesis kit for miRNA from Origene (HP100042). qRT-PCR for miR-223 3p was performed on a 7900HT Fast Real-Time PCR system (ABI) according to Origene protocol and ACT values were calculated. […]
# Quantitative Real Time PCR (qRT-PCR) Measuring Endogenous miR223-3p. […] For measuring levels of miR223-3p, cells were collected at the above time points, RNA isolated using the Qiagen RNeasy kit. cDNA conversion was then performed using first-strand cDNA synthesis kit for miRNA from Origene (HP100042). qRT-PCR for miR223 3p was performed on a 7900HT Fast Real-Time PCR system (ABI) according to Origene protocol and ΔCT values were calculated. […]
# [2] = tested on: Human Mesothelioma cells (H-Meso 01A); assay: Colony formation of BAP1 mutant human mesothelioma cells treated with olaparib; details: 3 olaparib, 10 days continuous
# Method: These cells were treated with the PARP inhibitor, olaparib. Human Mesothelioma cells (H-Meso 01A) were cultured in RPMI media supplemented with 10% FBS and 1% Penicillin/Streptomycin. These cells were seeded in a 6-well plate at a density of 4000 cells/well and allowed to grow for 18 hours. Of the six wells, three wells were treated with […] (LC laboratories, Cat #0-9201) each and the other three wells were considered as controls. The cells were allowed to grow for 10 days. Olaparib stayed on the cells throughout the experiment. After 10 days of incubation, colonies were stained with 0.1% crystal violet in methanol and counted using Image J software. Olaparib killed at least 80-90% of the cells. The experiment was done three times, each in triplicates and the average from all three times was calculated (FIG. 24).
# [3] = tested on: MDA-MB-436 (breast cancer) cells, deficient in BRCA1; assay: Colony formation survival assay, MDA-MB-436; details: MDA-MB-436, 25 nm miR-223-3p mimic, colonies counted after 14 days
# Method: (§1) Colony formation assays measures the ability of a single cell to not only survive, but also to proliferate. Thus, it is an indirect measurement of cancer stem cell activity, the ability of a single cell to give rise to a host of progeny. The BRCA1-deficient MDA-MB-436 breast cancer cells were cultured in DMEM supplemented with 10% FBS and 1% penicillin and streptomycin. BRRCA1-deficient UWB1.289 ovarian cancer cells were cultured and maintained in 50% MEBM medium with growth factors and 50% RPMI medium supplemented with 3% FBS and 1% penicillin and streptomycin. 25 nm of mirVana miR-223 3p mimic from Ambion life technologies (Cat #4464067) was used to deplete PARP1 protein in these cell lines. Mir223-3p was encapsulated into the lipid transfection complex, RNAiMAX. […] After 48 hours, the cells were trypsinized, counted and plated in 6 well plates at a density of 4000 cells per well, in triplicates. After 14 days of incubation, colonies were stained with 0.1% crystal violet in methanol and counted using Image J software. […]
# (§2) Cell Culture, miRNA transfection and Survival Assay. […] After 48 hours, the cells were trypsinized, counted and plated in 6 well plates at a density of 4000 cells per well, in triplicates. After 14 days of incubation, colonies were stained with 0.1% crystal violet in methanol and counted using Image J software. […]
# PARP1 = assay: Western analysis of PARP1 after exposure to miR-223-3p mimic; details: for PARP1 protein expression (Western): breast and ovarian cell lines harboring BRCA1 mutant (MDA-MB-436, UWB1.289); for PARP1 repression/knockdown (Western): cell line not given, 25 nM mimic in FIG. 33
# Method: Colony formation assays measures the ability of a single cell to not only survive, but also to proliferate. Thus, it is an indirect measurement of cancer stem cell activity, the ability of a single cell to give rise to a host of progeny. The BRCA1-deficient MDA-MB-436 breast cancer cells were cultured in DMEM supplemented with 10% FBS and 1% penicillin and streptomycin. BRRCA1-deficient UWB1.289 ovarian cancer cells were cultured and maintained in 50% MEBM medium with growth factors and 50% RPMI medium supplemented with 3% FBS and 1% penicillin and streptomycin. 25 nm of mirVana miR-223 3p mimic from Ambion life technologies (Cat #4464067) was used to deplete PARP1 protein in these cell lines. Mir223-3p was encapsulated into the lipid transfection complex, RNAiMAX. 25 nm of miR-223-3p was incubated in 500 μL Opti-MEM plus 6 μl of RNAiMAX for 20 mins at room temperature and then added to the cells for a final volume of 1 ml. After 48 hours, the cells were trypsinized, counted and plated in 6 well plates at a density of 4000 cells per well, in triplicates. After 14 days of incubation, colonies were stained with 0.1% crystal violet in methanol and counted using Image J software. PARP1 repression by miR-223-3p was shown by western blot. PARP1 antibody was purchased from Cell Signaling (46D11).
# (§3) Cell Culture, miRNA transfection and Survival Assay. The BRCA1-deficient MDA-MB-436 breast cancer cells were cultured in DMEM supplemented with 10% FBS and 1% penicillin and streptomycin. BRRCA1-deficient UWB1.289 ovarian cancer cells were cultured and maintained in 50% MEBM medium with growth factors and 50% RPMI medium supplemented with 3% FBS and 1% penicillin and streptomycin. BAP1-mutant H2452 mesothelioma cells were cultured in RPMI 1640 medium supplemented with 10% fetal bovine serum and 1% penicillin and streptomycin. 25 nm of mirVana miR223-3p mimic from Ambion life technologies (Cat #4464067) was used to deplete PARP1 protein in these cell lines. Mir223-3p was encapsulated into the lipid transfection complex, RNAiMAX. 25 nm of mir223-3p was incubated in 500 µL Opti-MEM plus 6 ul of RNAiMAX for 20 mins at room temperature, and then added to the cells for a final volume of 1 ml. After 48 hours, the cells were trypsinized, counted and plated in 6 well plates at a density of 4000 cells per well, in triplicates. After 14 days of incubation, colonies were stained with 0.1% crystal violet in methanol and counted using Image J software. PARP1 repression by mir223-3p was shown by western blot. PARP1 antibody was purchased from Cell Signaling (46D11). FIG. 44 illustrates the depletion of other DNA repair components in addition to PARP1.
# aNHEJ = assay: Alternative non-homologous end joining (aNHEJ) assay in EJ2-GFP U2OS cells; details: prior exposure to miR-223-3p, I-SceI expression
# Method: PARP1 is involved in the initial step in aNHEJ DNA double strand break repair. If PARP1 is repressed, then aNHEJ is decreased. The EJ2-GFP U2OS system was used to assess aNHEJ. This reporter system contains single, integrated copy of reporter with I-SceI target sites. These sites were cleaved upon transfection of an I-SceI expression vector. Cells were transfected with miR-223 3p mimic using RNAiMAX. 24 hours after transfection, the cells were transfected with I-SceI vector using polyethylenimine (PEI). After 72 hours, EJ2 cells were trypsinized, washed with PBS and GFP-positive cells were measured using FACSort (Becton-Dickinson, San Jose, Calif.). The GFP positive cells are proportional to the aNHEJ frequency.
# Alternative Non-Homologous End Joining (aNHEJ) assay. PARP1 is the initial step in aNHEJ DNA double strand break repair. If PARP1 is repressed, then aNHEJ will be decreased. The EJ2-GFP U2OS system was used to assess aNHEJ. This reporter system contains single, integrated copy of reporter with I-SceI target sites. These sites were cleaved upon transfection of an I-SceI expression vector. Cells were transfected with miR223 3p mimic using RNAiMAX. […] After 72 hours, EJ2 cells were trypsinized, washed with PBS and GFP-positive cells were measured using FACSort (Becton-Dickinson, San Jose, Calif.). […]
# [4] = tested on: MDA-MB-436 BRCA mutant cells; assay: Active replication forks analysis (BrdU foci), MDA-MB-436; details: 72 hours after miRNA transfection, BrdU 30 minutes
# Method: Active Replication Forks Analysis. Active Replication forks after miR223-3p mimic transfection were measured using immunofluorescent detection of BrdU foci after DNA denaturation. Briefly, 72 hours after transfection, cells were released into fresh media containing 10 uM BrdU (BD Biosciences, Franklin Lakes, N.J.) for 30 min. After washing, cells on coverslip were fixed and the DNA denatured using hydrochloric acid for BrdU immunostaining. The coverslips were processed for immunostaining using BrdU-specific antibody (Cell Signaling, Danvers, Mass.) and then incubated with a secondary antibody conjugated with Alexa Fluor dye from Invitrogen for 1 h. Cells were analyzed as above using the laser scanning confocal microscope. At least five hundred cells were counted for each condition from at least six distinct slides per condition for statistical analysis.
# [5] = tested on: UWB1.289 (ovarian cancer) cells, deficient in BRCA1; assay: Colony formation survival assay, UWB1.289; details: UWB1.289, 25 nm miR-223-3p mimic, colonies counted after 14 days
# Method: as §1, §2
# [6] = tested on: other DNA repair components as well as PARP1; assay: Western blot of DNA repair components after miR223-3p mimic; details: MDA MB 436, HCC1937 and H2452 cells, 48 hours after transfection, vs scr control
# Method: as §3
# PARP1 3′ UTR mRNA = assay: Luciferase assay for stability of PARP1 3′ UTR mRNA in A549 cells; details: normalized against Renilla luciferase
# Method: (§4) A549 cells were transfected with miR-223-3p mimic using RNAiMAX as above. After 6 hours, these cells were transfected with PARP 3′UTR plasmid fused with dual luciferase reporter from GeneCopoeia using Lipofectamine 2000. 48 hours post-transfection, cells were collected and assessed for luciferase activity using Luc-Pair Dual Luciferase assay kit from GeneCopoeia. The firefly luciferase activity is normalized against Renilla luciferase, which serves as a transfection control.
# as §4, with “Luciferase assay for assessing stability of PARP1 3′ UTR mRNA. A549” for “A549”, “miR223-3p” for “miR-223-3p”
compound,measurement,setting,value
"Nc1ccn([C@@H]2O[C@H](CO)[C@@H](O)[C@@H]2O)c(=O)n1 [Ara-C, cytarabine]",levels of endogenous miR-223-3p (qRT-PCR),[1],gradual decrease
"O=C(c1cc(Cc2n[nH]c(=O)c3ccccc23)ccc1F)N1CCN(C(=O)C2CC2)CC1 [Olaparib, olaparib]",cells killed (colony formation),[2],80-90%
"miR-223-3p: mirVana miR-223 3p mimic from Ambion life technologies (Cat #4464067); miR-223-3p is SEQ ID NO: 75; transfected with RNAiMAX (UGUCAGUUUGUCAAAUACCCCA; listed as RNA, chemistry not given here) [mirVana miR-223 3p mimic from Ambion life technologies (Cat #4464067); transfected with RNAiMAX]",number of colonies,[3],decreased number of colonies
same,PARP1 knockdown (Western),PARP1; BAP1 mutant mesothelioma,knockdown of PARP1
same,PARP1 knockdown (Western),PARP1; EJ2-GFP cell reporter system,knockdown of PARP1
same,PARP1 protein expression (Western),PARP1,represses PARP1 protein expression
same,PARP1 protein expression (Western),PARP1; listed as mir223 mimic,knockdown of PARP1
same,PARP1 repression/knockdown (Western),PARP1,Knockdown of PARP1
same,PARP1 repression/knockdown (Western),PARP1; listed as miR223 mimic,repression of PARP1
same,fraction of EJ2 cells with productive aNHEJ (GFP positive cells),aNHEJ,decreased
same,active replication forks (BrdU),[4],decreases active replication forks
same,number of colonies,[5],decreased number of colonies
same,depletion of DNA repair components (Western),[6],depletes other DNA repair components as well as PARP1
same,Luciferase expression (PARP1 3′ UTR linked to Firefly Luciferase),PARP1 3′ UTR mRNA,decreased
same,Luciferase expression (PARP1 3′ UTR linked to Firefly Luciferase),PARP1 3′ UTR mRNA; listed as miR223-3p mimic,inhibition of PARP1
